# Where a SMILES comes first, the peptide text is derived from it. [ ]: non-standard residue; d: D form. The star is where a group is joined. dPhe(4-NHCONH2) = NC(=O)Nc1ccc(C[C@@H](N)C(=O)O)cc1; Dihydroorotyl(S) = O=C1C[C@@H](C(=O)*)NC(=O)N1; dPhe(4-Cl) = N[C@H](Cc1ccc(Cl)cc1)C(=O)O; Phe(4-NH2) = Nc1ccc(C[C@H](N)C(=O)O)cc1; d2Nal = N[C@H](Cc1ccc2ccccc2c1)C(=O)O; Lys(iPr) = CC(C)NCCCC[C@H](N)C(=O)O; d3Pal = N[C@H](Cc1cccnc1)C(=O)O
# System: serum testosterone
# Assay: Clinical trial CS18 (Phase 2, three-month dosing regimen): serum testosterone ≦0.5 ng/mL
# Format: in vivo, human
# Conditions: for cumulative probability of testosterone ≦0.5 ng/mL, Kaplan-Meier estimate / number of patients with testosterone > 0.5 ng/mL: Day 28 to Day 364; for cumulative probability of testosterone ≦0.5 ng/mL, Kaplan-Meier estimate / proportion of patients with testosterone ≦0.5 ng/mL: ITT
# Protocol: The present study included a starting degarelix dose of 240 mg (with a concentration of 40 mg/mL of solvent), followed by maintenance doses of degarelix: i.e., 360 mg (with a concentration of 60 mg/mL of solvent) or 480 mg (with a concentration of 60 mg/mL of solvent), the latter administered at Months 1, 4, 7, and 10.
# The study was open labeled and patients received a starting dose of 240 mg (with a concentration of 40 mg/mL of solvent) at Month 0 followed by one of two degarelix maintenance dose treatment regimens: 360 mg (with a concentration of 60 mg/mL of solvent) at Months 1, 4, 7, and 10; or 480 mg (with a concentration of 60 mg/mL of solvent) at Months 1, 4, 7, and 10.
# The starting dose was administered subcutaneously as two injections of 120 mg (with a concentration of 40 mg/ml of solvent, given as 2×3 mL injections). After 28 days a maintenance dose of 360 mg (with a concentration of 60 mg/mL, given as 2×3 mL injections) or 480 mg (with a concentration of 60 mg/mL, given as 2×4 mL injections) was administered, also in two injections (each of 240 mg). Thereafter, with three monthly intervals, maintenance doses were given, again in the form of two injections. […] At each visit, serum testosterone, prostate specific androgen (PSA), and plasma concentration of degarelix were measured by techniques well known in the art.
compound,measurement,setting,value
"CC(=O)N[C@H](Cc1ccc2ccccc2c1)C(=O)N[C@H](Cc1ccc(Cl)cc1)C(=O)N[C@H](Cc1cccnc1)C(=O)N[C@@H](CO)C(=O)N[C@@H](Cc1ccc(NC(=O)[C@@H]2CC(=O)NC(=O)N2)cc1)C(=O)N[C@H](Cc1ccc(NC(N)=O)cc1)C(=O)N[C@@H](CC(C)C)C(=O)N[C@@H](CCCCNC(C)C)C(=O)N1CCC[C@H]1C(=O)N[C@H](C)C(N)=O [Degarelix, D-Alaninamide, N-acetyl-3-(2-naphthalenyl)-D-alanyl-4-chloro-D-phenylalanyl-3-(3-pyridinyl)-D-alanyl-L-seryl-4-[[[(4S)-hexahydro-2,6-dioxo-4-pyrimidinyl]carbonyl]amino]-L-phenylalanyl-4-[(aminocarbonyl)amino]-D-phenylalanyl-L leucyl-N6-(1-methylethyl)-L-lysyl-L-prolyl] (Ac-[d2Nal][dPhe(4-Cl)][d3Pal]S[Phe(4-NH2)](Dihydroorotyl(S))[dPhe(4-NHCONH2)]L[Lys(iPr)]P[dA]-NH2)","cumulative probability of testosterone ≦0.5 ng/mL, Kaplan-Meier estimate","360 mg (60 mg/mL) maintenance Months 1,4,7,10 after 240 mg start",89.0%
same,"cumulative probability of testosterone ≦0.5 ng/mL, Kaplan-Meier estimate","360 mg (60 mg/mL) maintenance Months 1,4,7,10 after 240 mg start, listed as degarelix",89.0%
same,patients with sustained testosterone suppression over the course of the observed time period,360 mg (60 mg/mL) maintenance dose,at least 90%
same,"cumulative probability of testosterone ≦0.5 ng/mL, Kaplan-Meier estimate","480 mg (60 mg/mL) maintenance Months 1,4,7,10 after 240 mg start",93.3%
same,"cumulative probability of testosterone ≦0.5 ng/mL, Kaplan-Meier estimate","480 mg (60 mg/mL) maintenance Months 1,4,7,10 after 240 mg start, listed as degarelix",93.3%
same,patients with sustained testosterone suppression over the course of the observed time period,480 mg (60 mg/mL) maintenance dose,> 95%
same,coverage probability (confidence of true suppression rate being greater than 90%),360/60 mg,39.7%
same,proportion of patients with testosterone ≦0.5 ng/mL,"360/60 mg, Day 28",98.5%
same,proportion of patients with testosterone ≦0.5 ng/mL,"360/60 mg, Day 56",100%
same,proportion of patients with testosterone ≦0.5 ng/mL,"360/60 mg, Day 84",100%
same,proportion of patients with testosterone ≦0.5 ng/mL,"360/60 mg, Day 112",96.8%
same,proportion of patients with testosterone ≦0.5 ng/mL,"360/60 mg, Day 140",100%
same,proportion of patients with testosterone ≦0.5 ng/mL,"360/60 mg, Day 168",98.4%
same,proportion of patients with testosterone ≦0.5 ng/mL,"360/60 mg, Day 196 (before re-dosing at Month 7)",90.6%
same,proportion of patients with testosterone ≦0.5 ng/mL,"360/60 mg, Day 196 (before re-dosing at Month 7), listed as degarelix",90.6%
same,proportion of patients with testosterone ≦0.5 ng/mL,"360/60 mg, Day 224",98.4%
same,proportion of patients with testosterone ≦0.5 ng/mL,"360/60 mg, Day 252",98.4%
same,proportion of patients with testosterone ≦0.5 ng/mL,"360/60 mg, Day 280 (before re-dosing at Month 10)",93.3%
same,proportion of patients with testosterone ≦0.5 ng/mL,"360/60 mg, Day 280 (before re-dosing at Month 10), listed as degarelix",93.3%
same,proportion of patients with testosterone ≦0.5 ng/mL,"360/60 mg, Day 308",100%
same,proportion of patients with testosterone ≦0.5 ng/mL,"360/60 mg, Day 336",96.7%
same,proportion of patients with testosterone ≦0.5 ng/mL,"360/60 mg, Day 364",95.0%
same,number of patients with testosterone > 0.5 ng/mL,"360/60 mg, N=67",7
same,coverage probability (confidence of true suppression rate being greater than 90%),"360/60 mg, listed as degarelix",39.7%
same,coverage probability (confidence of true suppression rate being greater than 90%),480/60 mg,79.9%
same,proportion of patients with testosterone ≦0.5 ng/mL,"480/60 mg, Day 28",98.4%
same,proportion of patients with testosterone ≦0.5 ng/mL,"480/60 mg, Day 56",98.4%
same,proportion of patients with testosterone ≦0.5 ng/mL,"480/60 mg, Day 84",98.4%
same,proportion of patients with testosterone ≦0.5 ng/mL,"480/60 mg, Day 112",96.7%
same,proportion of patients with testosterone ≦0.5 ng/mL,"480/60 mg, Day 140",98.3%
same,proportion of patients with testosterone ≦0.5 ng/mL,"480/60 mg, Day 168",98.3%
same,proportion of patients with testosterone ≦0.5 ng/mL,"480/60 mg, Day 196",98.3%
same,proportion of patients with testosterone ≦0.5 ng/mL,"480/60 mg, Day 224",98.3%
same,proportion of patients with testosterone ≦0.5 ng/mL,"480/60 mg, Day 252",100%
same,proportion of patients with testosterone ≦0.5 ng/mL,"480/60 mg, Day 280",98.2%
same,proportion of patients with testosterone ≦0.5 ng/mL,"480/60 mg, Day 308",100%
same,proportion of patients with testosterone ≦0.5 ng/mL,"480/60 mg, Day 336",100%
same,proportion of patients with testosterone ≦0.5 ng/mL,"480/60 mg, Day 364",96.3%
same,number of patients with testosterone > 0.5 ng/mL,"480/60 mg, N=66",4
same,coverage probability (confidence of true suppression rate being greater than 90%),"480/60 mg, listed as degarelix",79.9%
same,"cumulative probability of testosterone ≦0.5 ng/mL, Kaplan-Meier estimate",Total (480 mg and 360 mg arms),92.8%
same,proportion of patients with testosterone ≦0.5 ng/mL,"Total (both arms, after 240 mg starting dose), Day 28",98.4%
same,proportion of patients with testosterone ≦0.5 ng/mL,"Total (both arms, after 240 mg starting dose), Day 28, listed as degarelix",98%
same,number of patients with testosterone > 0.5 ng/mL,"Total, N=133",11
